Laboratory results: PMC12431657, “Discovery and mechanistic insights of dibenzoylmethane as a broad spectrum inhibitor of coronavirus” (PLOS Pathogens, 2025)
Counter-ions that a name gives are not always drawn.

Tests used:
[1] = test system: HCoV-OC43; set-up: species or system RD; HTS, protection from HCoV-OC43 induced cell death, luminescent cell viability (CellCounting-Lite 2.0), inhibition rate; conditions: 24 h, 10 µM; inhibitor
[2] = test system: HCoV-229E; set-up: species or system Huh-7; HTS, protection from HCoV-229E induced cell death, luminescent cell viability (CellCounting-Lite 2.0), inhibition rate; conditions: 24 h, 10 µM; inhibitor
[3] = test system: Huh-7 cells; assay: Cytotoxicity assay (CCK-8), Huh-7 cells
[4] = test system: HCoV-OC43; assay: Antiviral activity in vitro, qRT-PCR, HCoV-OC43 in RD cells; format: cell-based; conditions: HCoV-OC43; cell line not printed (S6C Fig)

With `COc1ccc2c(c1OC)C(=O)O[C@@H]2[C@H]1c2cc3c(cc2CCN1C)OCO3` [Hydrastine] the “OC43 Inhibition rate” value [1] was -0.2% and the “229E Inhibition rate” value [2] was 28.1%.

`CN1CCc2cc3c(cc2[C@H]1[C@@H]1OC(=O)c2c1ccc1c2OCO1)OCO3` [Bicuculline] was tested, and the “OC43 Inhibition rate” value [1] was -0.3% and the “229E Inhibition rate” value [2] was 0%.

With `CC1=C2C(=O)[C@H]3[C@@H](CC=C4C[C@@H](O)CC[C@@]43C)[C@@H]2CC[C@]12O[C@@H]1C[C@H](C)CN[C@H]1[C@H]2C` [Jervine] the “OC43 Inhibition rate” value [1] was -0.3% and the “229E Inhibition rate” value [2] was 3.8%.

For `CN1C(=O)[C@]23CC4=CC=C[C@H](O)[C@H]4N2C(=O)[C@@]1(CO)SS3` [Gliotoxin], the “OC43 Inhibition rate” value [1] was -0.7% and the “229E Inhibition rate” value [2] was 0.7%.

`CO[C@H]1CC=C2CCN3CCC4=C(CC(=O)OC4)[C@]23C1` [Dihydro-β-erythroidine (hydrobromide)] was tested, and the “OC43 Inhibition rate” value [1] was -0.7% and the “229E Inhibition rate” value [2] was 0%.

`O=C1C=C2C=C[C@@H]3C[C@@]2(O1)[C@@H]1CCCCN31` [Allosecurinine] was tested, and the “OC43 Inhibition rate” value [1] was 19.8% and the “229E Inhibition rate” value [2] was 21.3%.

For `C[C@H]1CCC2N(C1)C[C@H]1C3CC4[C@@H](CC(=O)C5C[C@@H](O)CC[C@@]54C)C3CCC1[C@]2(C)O` (stereo partly shown) [Peiminine], the “OC43 Inhibition rate” value [1] was 1% and the “229E Inhibition rate” value [2] was 21.8%.

For `C=C[C@@H](O)C#CC#C[C@@H](O)/C=C\CCCCCCC` [Falcarindiol], the “OC43 Inhibition rate” value [1] was -0.3% and the “229E Inhibition rate” value [2] was 34%.

`CC(C)CCC(=O)c1ccoc1` [Perilla ketone] was tested, and the “OC43 Inhibition rate” value [1] was 2.5% and the “229E Inhibition rate” value [2] was 9.1%.

For `CC(=O)OC/C1=C\[C@H]2[C@@H](OC(=O)/C=C/c3ccccc3)[C@@H](C)C[C@]2(OC(C)=O)C(=O)/C(C)=C/[C@@H]2[C@H](CC1)C2(C)C` [euphorbia factor L7a], the “selectivity index (SI)” value [3] was “below 25”.

`CC(C)C1=CC(=O)[C@@](C)([C@H]2[C@H](O)C[C@@]3(C)[C@@H]4CC=C5[C@@H](CC[C@@H](O[C@@H]6OC[C@@H](O)[C@H](O)[C@H]6O[C@@H]6O[C@@H](C)[C@H](O)[C@@H](O)[C@H]6O)C5(C)C)[C@]4(C)C(=O)C[C@]23C)O1` [Picfeltarraenin IA] was tested, and the “OC43 Inhibition rate” value [1] was -0.3% and the “229E Inhibition rate” value [2] was 0%.

With `CN[C@H]1[C@H](O)[C@H](O[C@@H]2[C@@H](O)[C@H](O[C@H]3O[C@H](C(C)O)[C@@H](O)[C@H](O)[C@H]3N)[C@@H](N)C[C@H]2N)OC[C@@]1(C)O` (stereo partly shown) [G-418 (disulfate)] the “OC43 Inhibition rate” value [1] was 4.1% and the “229E Inhibition rate” value [2] was 29.4%.

`C[C@@H]1O[C@@H](O[C@@H]2C=C3CC[C@@H]4[C@H](CC[C@]5(C)[C@@H](c6ccc(=O)oc6)CC[C@]45O)[C@@]3(C)CC2)[C@H](O)[C@H](O)[C@H]1O` [Proscillaridin A] was tested, and the “OC43 Inhibition rate” value [1] was -0.6% and the “229E Inhibition rate” value [2] was 21.1%.

For `CC1=C2C(=CO[C@H](C)[C@H]2C)C(O)=C(C(=O)O)C1=O` [Citrinin], the “OC43 Inhibition rate” value [1] was -8.1% and the “229E Inhibition rate” value [2] was 12%.

With `C[C@H]1CC[C@@H]2N(C1)C[C@H]1[C@@H]3C[C@H]4[C@@H](CC(=O)[C@H]5C[C@@H](O)CC[C@@]54C)[C@@H]3CC[C@H]1[C@]2(C)O` [Sipeimine] the “OC43 Inhibition rate” value [1] was -1% and the “229E Inhibition rate” value [2] was 43.3%.

In the case of `COc1cc(CNC(=O)CCCCCCC(C)C)ccc1O` [Dihydrocapsaicin], the “OC43 Inhibition rate” value [1] is reported as 7.9 and the “229E Inhibition rate” value [2] is reported as 7.8.

For `N#C[C@H](O[C@@H]1O[C@H](CO[C@@H]2O[C@H](CO)[C@@H](O)[C@H](O)[C@H]2O)[C@@H](O)[C@H](O)[C@H]1O)c1ccccc1` [Amygdalin], the “OC43 Inhibition rate” value [1] was 0.1% and the “229E Inhibition rate” value [2] was 20.7%.

With `COc1c2c3c4c(c(OC)c(=O)c5c(O)cc(OC)c(c6c(OC)cc(O)c(c1=O)c63)c54)[C@@H](C(C)=O)[C@@](C)(O)C2` [Hypocrellin A] the “OC43 Inhibition rate” value [1] was -1.7% and the “229E Inhibition rate” value [2] was 4.6%.

`CCc1c(Cl)c(O)c(Cl)c(O)c1C(=O)O[C@H]1[C@H](O)[C@H](OC)[C@H](OC/C2=C\C=C\C[C@H](O)/C(C)=C/[C@H](CC)[C@@H](O[C@@H]3OC(C)(C)[C@@H](OC(=O)C(C)C)[C@H](O)[C@@H]3O)/C(C)=C/C(C)=C/C[C@@H]([C@@H](C)O)OC2=O)O[C@@H]1C` [Fidaxomicin] was tested, and the “OC43 Inhibition rate” value [1] was 15 and the “229E Inhibition rate” value [2] was 27.3.

For `CC[C@H]1CN2CCc3cc(OC)c(OC)cc3[C@@H]2C[C@@H]1C[C@H]1NCCc2cc(O)c(OC)cc21` [Cephaeline (dihydrochloride)], the “OC43 Inhibition rate” value [1] was 7.6% and the “229E Inhibition rate” value [2] was 17.7%.

`C[C@H]1CCC[C@@H](O)CCC/C=C/c2cc(O)cc(O)c2C(=O)O1` [β-Zearalenol] was tested, and the “OC43 Inhibition rate” value [1] was 39.8 and the “229E Inhibition rate” value [2] was 60.6.

`C=C[C@]12CN(C)[C@@H]3[C@H]4CO[C@H](C[C@H]41)[C@]1(C(=O)Nc4ccccc41)[C@@H]32` [Gelsemine] was tested, and the “OC43 Inhibition rate” value [1] was -0.3% and the “229E Inhibition rate” value [2] was 21.7%.

For `CC1=C2[C@H]3OC(=O)[C@@H](C)[C@@H]3CC[C@@]2(C)C=CC1=O` [Santonin], the “OC43 Inhibition rate” value [1] was -0.5% and the “229E Inhibition rate” value [2] was 22.7%.

`C=C(C)[C@H]1CN[C@H](C(=O)O)[C@H]1CC(=O)O` [Kainic acid] was tested, and the “OC43 Inhibition rate” value [1] was 2.1% and the “229E Inhibition rate” value [2] was 14.3%.

`C=C(C)c1cc2cc(C(C)=O)c(O)cc2o1` [Euparin] was tested, and the “OC43 Inhibition rate” value [1] was 4.4% and the “229E Inhibition rate” value [2] was 14.2%.

With `CCCCc1ccc(C(=O)O)nc1` [Fusaric acid] the “OC43 Inhibition rate” value [1] was 0.1% and the “229E Inhibition rate” value [2] was 12.7%.

With `O=C1C=C2C(=CCOC2O)O1` (stereo not shown) [Patulin] the “OC43 Inhibition rate” value [1] was -3.1% and the “229E Inhibition rate” value [2] was 3.7%.

In the case of `O=c1cc(-c2ccc(O)cc2)oc2c([C@@H]3O[C@H](CO)[C@@H](O)[C@H](O)[C@H]3O)c(O)cc(O)c12` [Vitexin], the “OC43 Inhibition rate” value [1] is reported as 0% and the “229E Inhibition rate” value [2] is reported as 10.4%.

For `CC(=O)O[C@H]1[C@H]2O[C@]23[C@@H]2CC[C@]4(O)C[C@@H](O)CC[C@]4(C)[C@H]2CC[C@]3(C)[C@H]1c1ccc(=O)oc1` [Cinobufotalin], the “OC43 Inhibition rate” value [1] was 11.4% and the “229E Inhibition rate” value [2] was 9.3%.

With `O=C1C=C2C=C[C@@H]3C[C@@]2(O1)[C@H]1CCCCN31` [(-)-Securinine] the “OC43 Inhibition rate” value [1] was 38.4% and the “229E Inhibition rate” value [2] was 43%.

`C/C=C\c1cc(OC)c(OC)cc1OC` [Beta-asarone] was tested, and the “OC43 Inhibition rate” value [1] was 0.1% and the “229E Inhibition rate” value [2] was 28.9%.

`N#C[C@@H](O[C@@H]1O[C@H](CO[C@@H]2O[C@H](CO)[C@@H](O)[C@H](O)[C@H]2O)[C@@H](O)[C@H](O)[C@H]1O)c1ccccc1` [Neoamygdalin] was tested, and the “OC43 Inhibition rate” value [1] was -0.4% and the “229E Inhibition rate” value [2] was 63.2%.

`C[C@]12CC[C@H](O)C[C@H]1CC[C@@H]1[C@@H]2CC[C@]2(C)[C@@H](c3ccc(=O)oc3)CC[C@]12O` [Bufalin] was tested, and the “OC43 Inhibition rate” value [1] was -7.6% and the “229E Inhibition rate” value [2] was 19.3%.

With `C/C=C/c1cc(OC)c(OC)cc1OC` [alpha-Asarone] the “OC43 Inhibition rate” value [1] was 1.2% and the “229E Inhibition rate” value [2] was 14.4%.

For `N[C@H](C(=O)O)c1cc(O)no1` [Ibotenic acid], the “OC43 Inhibition rate” value [1] was 3.8% and the “229E Inhibition rate” value [2] was 11.4%.

In the case of `COC[C@@H]1CCCN1S(=O)(=O)c1ccc2c(c1)C(=O)C(=O)N2` [caspase-3/7 inhibitor I, (S)-(+)-5-[1-(2-methoxymethylpyrrolidinyl)sulfonyl]isatin, reference compound], the “suppression of viral replication” value [4] is reported as “not effective”.

For `CC[C@@]1(O)C(=O)OCc2c1cc1n(c2=O)Cc2cc3cc(O)ccc3nc2-1` [(S)-10-Hydroxycamptothecin], the “OC43 Inhibition rate” value [1] was -0.8 and the “229E Inhibition rate” value [2] was 18.7.

With `C[C@H]1CC[C@@H]2N(C1)C[C@H]1[C@@H]3C[C@H]4[C@@H](CC(=O)[C@H]5C[C@H](O)CC[C@@]54C)[C@@H]3CC[C@H]1[C@]2(C)O` [Yubeinine] the “OC43 Inhibition rate” value [1] was 0% and the “229E Inhibition rate” value [2] was 8.8%.

In the case of `CC[C@@H]1/C=C(\C)C[C@H](C)C[C@H](OC)[C@H]2O[C@@](O)(C(=O)C(=O)N3CCCC[C@H]3C(=O)O[C@H](/C(C)=C/[C@@H]3CC[C@@H](O)[C@H](OC)C3)[C@H](C)[C@@H](O)CC1=O)[C@H](C)C[C@@H]2OC` [Ascomycin], the “OC43 Inhibition rate” value [1] is reported as 12.5 and the “229E Inhibition rate” value [2] is reported as 17.9.

With `CCC(=O)O[C@@H]1CC(=O)O[C@H](C)C/C=C/C=C/[C@H](O)[C@H](C)C[C@H](CC=O)[C@H](O[C@@H]2O[C@H](C)[C@@H](O[C@H]3C[C@@](C)(O)[C@@H](OC(=O)CC)[C@H](C)O3)[C@H](N(C)C)[C@H]2O)[C@H]1OC` [Midecamycin] the “OC43 Inhibition rate” value [1] was -1.1 and the “229E Inhibition rate” value [2] was 12.9.

For `CC(=O)C1=C(O)[C@@H]2[C@H]3c4c[nH]c5cccc(c45)C[C@H]3C(C)(C)N2C1=O` [Cyclopiazonic acid], the “OC43 Inhibition rate” value [1] was 0% and the “229E Inhibition rate” value [2] was 0%.

`Cc1nccc2c1[nH]c1ccccc12` [Harmane] was tested, and the “OC43 Inhibition rate” value [1] was 0.2% and the “229E Inhibition rate” value [2] was 0%.

With `CC(C)[C@H]1OC(=O)[C@H](Cc2ccccc2)N(C)C(=O)[C@@H](C(C)C)OC(=O)[C@H](Cc2ccccc2)N(C)C(=O)[C@@H](C(C)C)OC(=O)[C@H](Cc2ccccc2)N(C)C1=O` [Beauvericin] the “OC43 Inhibition rate” value [1] was -1.9 and the “229E Inhibition rate” value [2] was 24.3.

With `C[C@H]1CC[C@@H]2[C@@H](C)[C@H]3[C@H](C[C@H]4[C@@H]5CC=C6C[C@@H](O[C@@H]7O[C@H](CO)[C@H](O)[C@H](O[C@@H]8O[C@H](CO)[C@@H](O)[C@H](O)[C@H]8O)[C@H]7O[C@@H]7O[C@@H](C)[C@H](O)[C@@H](O)[C@H]7O)CC[C@]6(C)[C@H]5CC[C@]34C)N2C1` [α-Solanine] the “OC43 Inhibition rate” value [1] was 23.1% and the “229E Inhibition rate” value [2] was 9.3%.

For `COc1cc2c(c(OC)c1OC)-c1ccc(OC)c(=O)cc1[C@@H](NC(C)=O)CC2` [Colchicine], the “OC43 Inhibition rate” value [1] was -3.5 and the “229E Inhibition rate” value [2] was 13.9.
